US20050209157A1, “Short bioactive peptides and methods for their use” (priority 2001, published 2005)
Where two headings read alike, the source gives them in different places. No end group written: not given here.

Legend:
in vitro [1] = format: cell-based, human; conditions: human, human red blood cells
fungal = assay: Presently preferred antifungal peptides, selected from the MIC/MBC data; format: cell-based; conditions: X = preferred
From the text: The peptide's “length” is the number of amino acid residues in the sequence.

in vitro [2] = conditions: human, WI38 normal lung fibroblast cells, WI-38 LD50, Table 26, valine substitution
[3] = test system: Escherichia coli ATCC 25922; assay: Antimicrobial assay I, modified protocol (tryptic soy broth), MBC; conditions: minimum bactericidal concentration, Table 4
Experimental: (§1) The preparation of all media, stock solutions, and dilutions took place in a laminar flow hood to prevent contamination. Bacterial cells were freshly grown on antibiotic medium 2 agar slants (pH 7.0 at 25° C.). Bacteria were suspended and diluted in antibiotic medium 3 to about 10^4 cfu/ml and used as the inoculum. Sample solutions (100 μl/well) were added to plates according to the plate layout. Inoculum (100 μl/well) was added to achieve a final concentration of 5×10^3 cfu/ml. Negative controls received 100 μl saline and 100 μl growth medium. Positive controls received 100 μl saline and 100 μl inoculum. Bacterial plates were incubated at 37° C. for 24 hours.
(§2) However, the data for Table 4 were obtained with a modified protocol wherein the medium was tryptic soy broth, inocolum strength was approximately 10^4 CFU per ml, and values determined were minimum bactericidal concentrations (MBC) or minimum fungicidal concentrations (MFC).
(§3) MBC or MFC values are in μg/mL. E. coli is Escherichia coli ATCC accession number 25922; P. aerug is Pseudomonas aeruginosa ATCC accession number 27853, S. aur. is Stapholococcus aureus ATCC accession number 25923; Candida is Candida albicans ATCC accession number 10231.

[4] = test system: Pseudomonas aeruginosa ATCC 27853; assay: as above; conditions: minimum bactericidal concentration, Table 4
Experimental: as §1, §2, §3

[5] = test system: Stapholococcus aureus ATCC 25923; assay: as above; conditions: minimum bactericidal concentration, Table 4
[6] = test system: Candida albicans ATCC 10231; assay: Antimicrobial assay I, modified protocol (tryptic soy broth), MFC; conditions: minimum fungicidal concentration, Table 4
[7] = test system: Pseudomonas aeruginosa ATCC 9027; assay: Antimicrobial assay I, MIC by OD measurement; format: cell-based
WI38 = conditions: Table 27
[8] = pH 7, Table 26, valine substitution, read-out: Hemolysis RBC LD50

Substance	HC50 at 1 h (in vitro [1]; [8])	Anti-fungal (preferred peptide) (fungal)	CC50 at 24 h (in vitro [2])	MBC E. coli A.25922 [3]	MBC P. aerug A.27853 [4]	MBC S. aur A.25923 [5]	MFC Candida A.10231 [6]	P. aerug (MIC) [7]	HC50 at 1 h (in vitro [1]; pH 7, Table 27, read-out: Hemolysis (LD50))	WI38 LD50 (WI38)
FALALKALKKL-NH2 [compound 165]	350 µg/mL	X (Preferred antifungal peptides can be selected as having MIC or MBC values of less than or equal to about 25 μg/ml)	850 µg/mL	10 µg/mL	25 µg/mL	25 µg/mL	10 µg/mL	–	–	–
VAKLLAKLAKKVL-NH2 [compound 154]	870 µg/mL	X (Preferred antifungal peptides can be selected as having MIC or MBC values of less than or equal to about 25 μg/ml)	110 µg/mL	50 µg/mL	100 µg/mL	>250 µg/mL	25 µg/mL	100 µg/mL	450 µg/mL	110 µg/mL
